Test [1] deals with T1, Protein kinase C alpha type (Homo sapiens, UniProt P17252). Briefly: Inhibition of [3H]phorbol-12,13-dibutyrate binding to PK-C.
In test [2] the target is T1, Protein kinase C alpha type. Briefly: Inhibition of [20-3H]phorbol-12,13-dibutyrate(PDBU) binding to purified PK-C alpha.

pKi: −log10 of the molar value.

With `CCCCCCCCCCCCCC(=O)O[C@@H]1CC(=O)O[C@H]1CO`, the figures for the pKi in test [1] and in test [2] were 5.60 and 5.82, respectively.

`CCCCCCCCCCCCCC(=O)O[C@@H]1CC(=O)O[C@H]1CCO`: the pKi in test [2] was 6.06.

The values are drawn from ChEMBL document CHEMBL1127114, “Conformationally constrained analogues of diacylglycerol. 5. 2,5-Dideoxy-3-O-tetradecanoyl-D-galactono-1,4-lactone: A superior homologue of 3-O-tetradecanoyl-2-deoxy-L-ribonolactone with PK-C binding affinity” (Bioorg Med Chem Lett, 1993).
